pIC50: −log10 of the molar value.

The experiment has as its system HIV in the HTLV-1 transformed cell line MT-4. As to the kind of experiment: organism not typed. It counts as cell-based. The conditions noted are these: MT4, 96 h, MT-4 cells; luciferase/cell titer glo readout after 96 hours; 10 point dose response.
The compound `COC1CCCC(C(=O)N2Cc3c(C)c(-c4ccc(C)cc4)c([C@H](OC(C)(C)C)C(=O)O)c(C)c3C2)C1` (stereo partly drawn) [Example 244, (2S)-2-(tert-butoxy)-2-(2-(3-methoxycyclohexanecarbonyl)-4,7-dimethyl-6-(p-tolyl)isoindolin-5-yl)acetic acid] gave a pIC50 of 7.85.

Take `Cc1cc(C(=O)N2Cc3c(C)c(-c4cc(F)c5c(c4C)CCCO5)c([C@H](OC(C)(C)C)C(=O)O)c(C)c3C2)ccc1F` (atropisomer, axis not shown; (M)) [Example 145, (S)-2-(tert-butoxy)-2-((M)-2-(4-fluoro-3-methylbenzoyl)-6-(8-fluoro-5-methylchroman-6-yl)-4,7-dimethylisoindolin-5-yl)acetic acid]: the pIC50 is 8.70. For `Cc1ccc(-c2c(C)c3c(c(C)c2[C@H](OC(C)(C)C)C(=O)O)CN(Cc2nc(C)c[nH]2)C3)cc1` [Example 23, (S)-2-(tert-butoxy)-2-(4,7-dimethyl-2-((4-methyl-1H-imidazol-2-yl)methyl)-6-(p-tolyl)isoindolin-5-yl)acetic acid], the pIC50 was 6.69. As for `Cc1c(-c2c(C)c3c(c(C)c2[C@H](OC(C)(C)C)C(=O)O)CN(C(=O)N2CCC(F)(F)C2)C3)ccc2c1CCCO2` [Example 320, (2S)-2-(tert-butoxy)-2-(2-(3,3-difluoropyrrolidine-1-carbonyl)-4,7-dimethyl-6-(5-methylchroman-6-yl)isoindolin-5-yl)acetic acid], the figure is 8.52; as for `Cc1ccc(-c2c(C)c3c(c(C)c2[C@H](OC(C)(C)C)C(=O)O)CN(C(=O)c2cc(F)cc(C(N)=O)c2)C3)cc1` [Example 266, (S)-2-(tert-butoxy)-2-(2-(3-carbamoyl-5-fluorobenzoyl)-4,7-dimethyl-6-(p-tolyl)isoindolin-5-yl)acetic acid], 6.90; as for `Cc1cc(F)cc(C(=O)N2Cc3c(C)c(-c4cc(F)c5c(c4C)CCCO5)c([C@H](OC(C)(C)C)C(=O)O)c(C)c3C2)c1` (atropisomer, axis not shown; (M)) [Example 178, (S)-2-(tert-butoxy)-2-((M)-2-(3-fluoro-5-methylbenzoyl)-6-(8-fluoro-5-methylchroman-6-yl)-4,7-dimethylisoindolin-5-yl)acetic acid], 8.70. The result for `Cc1ccc(-c2c(C)c3c(c(C)c2[C@H](OC(C)(C)C)C(=O)O)CN(C(=O)c2cc(F)cc(Cl)c2)C3)cc1` [Example 226, (S)-2-(tert-butoxy)-2-(2-(3-chloro-5-fluorobenzoyl)-4,7-dimethyl-6-(p-tolyl)isoindolin-5-yl)acetic acid] reads 8.30; that for `Cc1cccc(F)c1C(=O)N1Cc2c(C)c(-c3cc(F)c4c(c3C)CCCO4)c([C@H](OC(C)(C)C)C(=O)O)c(C)c2C1` (atropisomer, axis not shown; (M)) [Example 197, (S)-2-(tert-butoxy)-2-((M)-6-(8-fluoro-5-methylchroman-6-yl)-2-(2-fluoro-6-methylbenzoyl)-4,7-dimethylisoindolin-5-yl)acetic acid], 8.40. As for `Cc1c(-c2c(C)c3c(c(C)c2[C@H](OC(C)(C)C)C(=O)O)CN(C(=O)c2cccc4sccc24)C3)cc(F)c2c1CCCO2` (atropisomer, axis not shown; (M)) [Example 151, (S)-2-((M)-2-(benzo[b]thiophene-4-carbonyl)-6-(8-fluoro-5-methylchroman-6-yl)-4,7-dimethylisoindolin-5-yl)-2-(tert-butoxy)acetic acid], the figure is 8.30; as for `Cc1c2c(c(C)c([C@H](OC(C)(C)C)C(=O)O)c1-c1ccc(Cl)cc1)CN(C(=O)N1CCCCC1)C2` [Example 132, (S)-2-(tert-butoxy)-2-(6-(4-chlorophenyl)-4,7-dimethyl-2-(piperidine-1-carbonyl)isoindolin-5-yl)acetic acid], 7.68. The compound `COc1cncc(C(=O)N2Cc3c(C)c(-c4ccc(C)cc4)c([C@H](OC(C)(C)C)C(=O)O)c(C)c3C2)c1` [Example 235, (S)-2-(tert-butoxy)-2-(2-(5-methoxynicotinoyl)-4,7-dimethyl-6-(p-tolyl)isoindolin-5-yl)acetic acid] showed a pIC50 of 8.30.
